The text below walks through data of patent US8178694B2, “Heterocyclylaminoalkyl substituted benzimidazoles” (Tibotec Pharmaceuticals Ltd., priority 2005, dated 2012).

Data set [1] has as its system Respiratory Syncytial Virus. The data set is described as follows: In vitro screening for activity against Respiratory Syncytial Virus (tetrazolium-based colorimetric assay, HeLa cells). It counts as cell-based. Particulars: human respiratory syncytial virus, 168 h; protection against cytopathology caused by RSV in HeLa cells, MTT readout seven days after infection. The source says:
The percent protection against cytopathology caused by viruses (antiviral activity or EC50) achieved by tested compounds and their cytotoxicity (CC50) are both calculated from dose-response curves. The selectivity of the antiviral effect is represented by the selectivity index (SI), calculated by dividing the CC50 (cytotoxic dose for 50% of the cells) by the EC50 (antiviral activity for 50% of the cells).
Automated tetrazolium-based colorimetric assays were used for determination of EC50 and CC50 of test compounds. Flat-bottom, 96-well plastic microtiter trays were filled with 180 μl of Eagle's Basal Medium, supplemented with 5% FCS (0% for FLU) and 20 mM Hepes buffer. Subsequently, stock solutions (7.8× final test concentration) of compounds were added in 45 μl volumes to a series of triplicate wells so as to allow simultaneous evaluation of their effects on virus- and mock-infected cells. Five five-fold dilutions were made directly in the microtiter trays using a robot system. Untreated virus controls, and HeLa cell controls were included in each test. Approximately 100 TCID50 of Respiratory Syncytial Virus was added to two of the three rows in a volume of 50 μl. The same volume of medium was added to the third row to measure the cytotoxicity of the compounds at the same concentrations as those used to measure the antiviral activity. After two hours of incubation, a suspension (4×10^5 cells/ml) of HeLa cells was added to all wells in a volume of 50 μl. The cultures were incubated at 37° C. in a 5% CO2 atmosphere. Seven days after infection the cytotoxicity and the antiviral activity was examined spectrophotometrically. To each well of the microtiter tray, 25 μl of a solution of MTT (3-(4,5-dimethylthiazol-2-yl)-2,5-diphenyltetrazolium bromide) was added. The trays were further incubated at 37° C. for 2 hours, after which the medium was removed from each cup. Solubilization of the formazan crystals was achieved by adding 100 μl 2-propanol. Complete dissolution of the formazan crystals were obtained after the trays have been placed on a plate shaker for 10 min. Finally, the absorbances were read in an eight-channel computer-controlled photometer (Multiskan MCC, Flow Laboratories) at two wavelengths (540 and 690 nm). The absorbance measured at 690 nm was automatically subtracted from the absorbance at 540 nm, so as to eliminate the effects of non-specific absorption.

As to `Cc1ccc(O)c(Cn2c(NCCCN3CCOCC3)nc3ccc(CNc4cccnc4CCO)cc32)n1` [c-3], in data set [1], the EC50 (commonly the midpoint of the concentration-response curve) is 31.6 nM. The same measure, in the same setting: the result for `OCCc1ncccc1NCc1ccc2nc(NCCCN3CCOCC3)n(Cc3ncccc3O)c2c1` [e-1] reads 200 nM. Turning to `Cc1ccc(O)c(Cn2c(NCCCN3CCOCC3)nc3ccc(CNc4cnccc4CCO)cc32)n1` [g-3], the melting point (usually the temperature of the solid-liquid transition) turned out to be 207 °C. Besides, the concentration giving a half-maximal response (EC50) in data set [1] is 50.1 nM. For `OCCc1ccncc1NCc1ccc2nc(NCCCN3CCOCC3)n(Cc3ncccc3O)c2c1` [h-3], in that order: 142 °C and 447 nM.
